Source: patent publication US5330992A, “1-cyclopropyl-4-pyridyl-quinolinones” (priority 1992, dated 1994)

Legend:
[1] = system: adriamycin-resistant subline Mam16C/ADR; assay: In vivo antitumor assay, Mam16C/ADR; design: species or system mouse; conditions: drug route iv, qd 1 bid 2,3
Excerpt: (§1) Mice: Inbred: C3H/He and NCR-nu; and Hybrids: B6D2Fl (C57BL/6 females X DBA/2 males, CD2Fl (Balb/c females X DBS/2 males) and B6x C3fl (C57BL/6 x C3H) were bred at Wayne State University from strained obtained from the Frederick Cancer Research Facility, Frederick, Md. or purchased from commercial suppliers.
(§2) Tumors: Murine Tumor: P388 and an adriamycin-resistant (ADR) subline P388/ADR leukemia and the following transplantable solid tumors of mice were used for in Vivo testing: B16 melanoma (B16), pancreatic ductal adenocarcinoma No. 03 (Panc 03), colon adenocarcinoma No. 38 (colo 38), mammary ductal adenocarcinoma No. 16/C (Mam16) and an adriamycin-resistantsubline Mam16C/ADR. […]
(§3) Quantitative end points used assess antitumor activity included % Increased Life Span (% ILS), Tumor Cell Kill (Log10 kill), and Tumor Growth Inhibition (T/C). […]
(§4) Tumors were measured with a caliper once or twice weekly (as needed) until either tumors exceeded 1600 mg or cure was assured. […] When the control group tumors reached approximately 750-1500 mg in size (median of group), the median tumor weight of each group was determined (including zeros). […] The % T/C was calculated from the following formula for solid murine tumor models: [formula] where T and C are median tumor weights of the treatment and control groups, respectively. […]

[2] = In vivo antitumor assay, Mam16C/ADR; design: species or system mouse; conditions: mouse, in vivo, drug route iv, qd 1 bid 2,3
Excerpt: as §1, §2, §3, §4

Compound Cc1cc(-c2c(F)cc3c(=O)c(Cc4c(O)cccc4O)cn(C4CC4)c3c2F)cc(C)n1 [Example 26, 1-Cyclopropyl-6,8-difluoro-7-[2,6-dimethyl-4-pyridinyl]-3-[2,6-dihydroxyphenylmethyl]-1,4-dihydroquinoline-4-one] has a T/C % [1] of 71% and an MTD [2] of 30 mg/kg.
